The numbers were not newly measured in patent publication US20220031840A1, “Method of Treatment” (HaemaLogix Pty Ltd, priority 2018, published 2022), which cites them from elsewhere.

The subject of the data set is CXCL10. To be noted: elotuzumab phase I study; cited from earlier work.

As for “elotuzumab: antibody named as additional anti-cancer agent; phase I study cited (Zonder et al. 2012)”, the “Drug-induced change in CXCL10 levels” value is listed as “drug-induced increases”.
